Assay results published in patent publication US20100311714A1, “1H-IMIDAZO[4,5-c]QUINOLINONE COMPOUNDS” (priority 2009, published 2010).
Read-outs that look alike come from different tables or passages of the source.

How the values were obtained:
[1] = test system: PKB Ser473 phosphorylation in Rat1-myr-HA-p110 beta cells; assay: Reverse protein array, PKB Ser473 phosphorylation in Rat1-myr-HA-p110 beta cells; type: cell-based; conditions: Rattus norvegicus, 0.5 h, 30 minutes compound incubation, read-out: p-PKB/IC50_beta
[2] = test system: PKB Ser473 phosphorylation in Rat1-myr-HA-p110 alpha cells; assay: Reverse protein array, PKB Ser473 phosphorylation in Rat1-myr-HA-p110 alpha cells; type: cell-based; conditions: Rattus norvegicus, 0.5 h, 30 minutes compound incubation, read-out: p-PKB/IC50_alpha
mTOR = molecular target: T1, mTOR (Homo sapiens, UniProt P42345); assay: Biochemical assay for m-TOR by TR-FRET
T1 construct: purchased Invitrogen Corporation (Carlsbad/Calif., USA) PV4753
T1 sequence (P42345 1360-2549 limits assumed): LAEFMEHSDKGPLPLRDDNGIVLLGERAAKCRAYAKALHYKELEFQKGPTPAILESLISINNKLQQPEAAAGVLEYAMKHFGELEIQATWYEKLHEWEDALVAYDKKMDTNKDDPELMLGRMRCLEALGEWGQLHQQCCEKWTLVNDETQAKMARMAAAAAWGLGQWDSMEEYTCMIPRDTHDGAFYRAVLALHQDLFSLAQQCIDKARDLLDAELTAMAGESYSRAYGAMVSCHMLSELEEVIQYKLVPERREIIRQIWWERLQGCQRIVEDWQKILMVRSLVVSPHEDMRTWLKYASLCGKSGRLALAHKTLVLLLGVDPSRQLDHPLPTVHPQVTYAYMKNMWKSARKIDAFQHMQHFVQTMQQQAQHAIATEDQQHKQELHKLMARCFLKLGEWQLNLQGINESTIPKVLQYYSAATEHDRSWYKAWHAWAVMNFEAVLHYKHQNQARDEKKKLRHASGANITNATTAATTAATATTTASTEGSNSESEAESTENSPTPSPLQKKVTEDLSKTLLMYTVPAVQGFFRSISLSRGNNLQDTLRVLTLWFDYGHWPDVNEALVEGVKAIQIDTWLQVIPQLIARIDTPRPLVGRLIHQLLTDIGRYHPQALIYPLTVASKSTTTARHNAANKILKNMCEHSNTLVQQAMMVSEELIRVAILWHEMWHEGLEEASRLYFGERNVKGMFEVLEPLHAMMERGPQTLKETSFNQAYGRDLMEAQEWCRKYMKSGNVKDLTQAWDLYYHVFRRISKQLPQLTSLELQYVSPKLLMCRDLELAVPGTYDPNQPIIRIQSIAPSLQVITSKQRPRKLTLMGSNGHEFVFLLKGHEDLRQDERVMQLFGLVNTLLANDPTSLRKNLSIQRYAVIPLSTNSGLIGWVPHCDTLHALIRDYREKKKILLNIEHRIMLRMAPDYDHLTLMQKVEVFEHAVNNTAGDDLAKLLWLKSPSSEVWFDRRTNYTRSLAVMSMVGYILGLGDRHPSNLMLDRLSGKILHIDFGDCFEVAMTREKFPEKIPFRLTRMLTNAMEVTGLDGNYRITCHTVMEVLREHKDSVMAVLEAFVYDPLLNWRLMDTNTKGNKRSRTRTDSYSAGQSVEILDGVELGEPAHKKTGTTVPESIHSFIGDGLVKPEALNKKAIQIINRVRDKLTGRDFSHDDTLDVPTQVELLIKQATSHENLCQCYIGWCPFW
Description: Biochemical Assay for m-TOR by TR-FRET.
Assay components are purchased from Invitrogen Corporation (Carlsbad/Calif., USA): GFP-4EBP1 (Cat. No. PV4759), Tb3+-α-p4EBP1 [pThr46] Antibody (Cat. No. PV4757), proprietary TR-FRET dilution buffer (Cat. No. PV3574), mTOR protein (Cat. No. PV4753).
50 nL of compound dilutions (final concentration of 10, 3.0, 1.0, 0.3, 0.1, 0.03, 0.01 and 0.003 μM) are dispensed onto black 384-well low volume non-binding polystyrene (Cat. No. NBS#3676, Corning, Lowell/Mass., USA). Then 5 μL of ATP (8 μM final concentration) and GFP-4EBP1 (400 nM final concentration) with 5 μL mTOR proteins (0.5 nM final concentration) are incubated at rt. The standard reaction buffer for the TR-FRET mTOR assay contained 50 mM HEPES pH 7.5, 10 mM MnCl2, 50 mM NaCl, 1 mM EGTA, 1 mM DTT. Reactions were stopped with 10 μL of a mixture of EDTA containing the Tb3+-α-p4EBP1[pT46] detection Ab (0.5 nM) in TR-FRET dilution buffer (proprietary to IVG). Plates are read 15 mins later in a Synergy2 reader using an integration time of 0.2 seconds and a delay of 0.1 seconds. Control for the 100% inhibition of the kinase reaction is performed by replacing the mTOR kinase by the standard reaction buffer. The control for the 0% inhibition is given by the solvent vehicle of the compounds (90% DMSO in H2O). A standard compound is used as a reference compound and included in all assay plates in the form of 16 dilution points in duplicate.

[3] = Parallel Artificial Membrane Permeability Assay (PAMPA) at pH 6.8; type: physicochemical
Excerpt: The physicochemical properties of relevance for the absorption of the compound, such as the solubility and the membrane permeability, especially at a pH close to neutral pH can be measured using the procedure as described by L. ZHOU et al. in JOURNAL OF PHARMACEUTICAL SCIENCES, VOL. 96, NO. 11, p. 3052-3071 (2007) for the solubility at pH 6.8 and the procedure as described by F. Wohnsland and B. Faller in Journal of Medicinal Chemistry Vol 44, p. 923-930 (2001) for the Parallel Artificial Membrane Permeability Assay (PAMPA) at pH 6.8.
The following permeability log Pe was measured for compound of formula (I) as exemplified below: […]

| IC50 [1] | IC50 [2] | IC50 (mTOR; read-out: mTOR/IC50) | HT-Perm logPe pH6.8 [3] | IC50 (mTOR; read-out: EPK_mTOR/IC50) | HT-perm/logPe pH6.8 [3] | SMILES |
| --- | --- | --- | --- | --- | --- | --- |
| 16.9 nM | 6.56 nM | 10 nM |  |  |  | COc1ncccc1-n1c(=O)n(C)c2cnc3ccc(-c4ccc(C(N)=O)cc4)cc3c21 [Example 1.6, 4-[1-(2-Methoxy-pyridin-3-yl)-3-methyl-2-oxo-2,3-dihydro-1H-imidazo[4,5-c]quinolin-8-yl]-benzamide] |
| 689 nM | 301 nM |  |  |  |  | Cc1cccnc1-n1c(=O)n(C)c2cnc3ccc(-c4ccc(CO)nc4)cc3c21 [Example 3.9, 8-(6-Hydroxymethyl-pyridin-3-yl)-3-methyl-1-(3-methyl-pyridin-2-yl)-1,3-dihydro-imidazo[4,5-c]quinolin-2-one] |
|  |  |  | −4.3 | 6 nM |  | Cc1nc(C(C)(C)O)ccc1-n1c(=O)n(C)c2cnc3ccc(-c4cnc(N)c(C(F)(F)F)c4)cc3c21 [Example 31.5, 8-(6-Amino-5-trifluoromethyl-pyridin-3-yl)-1-[6-(1-hydroxy-1-methyl-ethyl)-2-methyl-pyridin-3-yl]-3-methyl-1,3-dihydro-imidazo[4,5-c]quinolin-2-one] |
| 15.1 nM | 21.1 nM |  |  | 9 nM |  | Cc1nc(N2CCC2)ccc1-n1c(=O)n(C)c2cnc3ccc(-c4cncc(N5CCC5)c4)cc3c21 [Example 23.1, 1-(6-Azetidin-1-yl-2-methyl-pyridin-3-yl)-8-(5-azetidin-1-yl-pyridin-3-yl)-3-methyl-1,3-dihydro-imidazo[4,5-c]quinolin-2-one] |
| 72.9 nM | 38.6 nM | 104 nM |  |  |  | Cc1ncccc1-n1c(=O)n(C)c2cnc3ccc(-c4ccc(CO)nc4)cc3c21 [Example 2.6, 8-(6-Hydroxymethyl-pyridin-3-yl)-3-methyl-1-(2-methyl-pyridin-3-yl)-1,3-dihydro-imidazo[4,5-c]quinolin-2-one] |
| 6.8 nM | 5.7 nM |  |  | 6 nM |  | CNc1ccc(-c2ccc3ncc4c(c3c2)n(-c2ccc(N3CCC3)nc2C)c(=O)n4C)cn1 [Example 23.4, 1-(6-Azetidin-1-yl-2-methyl-pyridin-3-yl)-3-methyl-8-(6-methylamino-pyridin-3-yl)-1,3-dihydro-imidazo[4,5-c]quinolin-2-one] |
| 516 nM | 78.3 nM |  |  |  | −3.8 | COc1ccc(-c2ccc3ncc4c(c3c2)n(-c2ncccc2C)c(=O)n4C)cc1OC [Example 3.10, 8-(3,4-Dimethoxy-phenyl)-3-methyl-1-(3-methyl-pyridin-2-yl)-1,3-dihydro-imidazo[4,5-c]quinolin-2-one] |
| 19.2 nM | 11.6 nM | 18 nM |  |  |  | Cc1ncccc1-n1c(=O)n(C)c2cnc3ccc(-c4ccc(N)nc4)cc3c21 [Example 2.7, 8-(6-Amino-pyridin-3-yl)-3-methyl-1-(2-methyl-pyridin-3-yl)-1,3-dihydro-imidazo[4,5-c]quinolin-2-one] |
| 33.3 nM | 18.4 nM |  |  |  |  | CCOc1ccc(-c2ccc3ncc4c(c3c2)n(-c2ccc(N3CCNCC3)nc2OC)c(=O)n4C)cn1 [Example 9.1, 8-(6-Ethoxy-pyridin-3-yl)-1-(2-methoxy-6-piperazin-1-yl-pyridin-3-yl)-3-methyl-1,3-dihydro-imidazo[4,5-c]quinolin-2-one] |
| 131 nM | 92.7 nM | 331 nM |  |  |  | CNC(=O)c1ccc(-c2ccc3ncc4c(c3c2)n(-c2ncccc2C)c(=O)n4C)cc1 [Example 3.5, N-Methyl-4-[3-methyl-1-(3-methyl-pyridin-2-yl)-2-oxo-2,3-dihydro-1H-imidazo[4,5-c]quinolin-8-yl]-benzamide] |
| 208 nM | 17 nM |  |  | 11 nM |  | COc1ncc(-c2ccc3ncc4c(c3c2)n(-c2ccc(N3CC(O)C3)nc2C)c(=O)n4C)c(OC)n1 [Example 29.6, 8-(2,4-Dimethoxy-pyrimidin-5-yl)-1-[6-(3-hydroxy-azetidin-1-yl)-2-methyl-pyridin-3-yl]-3-methyl-1,3-dihydro-imidazo[4,5-c]quinolin-2-one] |
|  | 632 nM |  |  |  | −3.8 | CCOc1ncc(-c2ccc3ncc4c(c3c2)n(-c2ncccc2C)c(=O)n4C)cn1 [Example 3.1, 8-(2-Ethoxy-pyrimidin-5-yl)-3-methyl-1-(3-methyl-pyridin-2-yl)-1,3-dihydro-imidazo[4,5-c]quinolin-2-one] |
| 20.6 nM | 33.9 nM |  |  |  |  | COc1nc(N2CCNCC2)ccc1-n1c(=O)n(C)c2cnc3ccc(-c4cnc(N)c(C(F)(F)F)c4)cc3c21 [Example 9.2, 8-(6-Amino-5-trifluoromethyl-pyridin-3-yl)-1-(2-methoxy-6-piperazin-1-yl-pyridin-3-yl)-3-methyl-1,3-dihydro-imidazo[4,5-c]quinolin-2-one] |
| 259 nM | 178 nM | 345 nM |  |  |  | Cc1cccnc1-n1c(=O)n(C)c2cnc3ccc(-c4ccc(C(N)=O)cc4)cc3c21 [Example 3.3, 4-[3-Methyl-1-(3-methyl-pyridin-2-yl)-2-oxo-2,3-dihydro-1H-imidazo[4,5-c]quinolin-8-yl]-benzamide] |
| 694 nM | 542 nM |  |  |  | −6.1 | Cc1ccncc1-n1c(=O)n(C)c2cnc3ccc(-c4ccc(CO)nc4)cc3c21 [Example 4.1, 8-(6-Hydroxymethyl-pyridin-3-yl)-3-methyl-1-(4-methyl-pyridin-3-yl)-1,3-dihydro-imidazo[4,5-c]quinolin-2-one] |
| 15.9 nM | 21 nM | 11 nM |  |  |  | Cc1ncccc1-n1c(=O)n(C)c2cnc3ccc(-c4ccc(C(N)=O)cc4)cc3c21 [Example 2.3, 4-[3-Methyl-1-(2-methyl-pyridin-3-yl)-2-oxo-2,3-dihydro-1H-imidazo[4,5-c]quinolin-8-yl]-benzamide] |
| 546 nM | 150 nM |  |  |  |  | CCOc1ccc(-c2ccc3ncc4c(c3c2)n(-c2ncccc2C)c(=O)n4C)cn1 [Example 3.6, 8-(6-Ethoxy-pyridin-3-yl)-3-methyl-1-(3-methyl-pyridin-2-yl)-1,3-dihydro-imidazo[4,5-c]quinolin-2-one] |
| 149 nM | 47.3 nM |  |  |  | −3.5 | CCOc1ccc(-c2ccc3ncc4c(c3c2)n(-c2cnccc2C)c(=O)n4C)cn1 [Example 4.2, 8-(6-Ethoxy-pyridin-3-yl)-3-methyl-1-(4-methyl-pyridin-3-yl)-1,3-dihydro-imidazo[4,5-c]quinolin-2-one] |
| 84.2 nM | 114 nM | 600 nM |  |  |  | Cc1ncccc1-n1c(=O)n(C)c2cnc3ccc(-c4ccc(OCCCN(C)C)nc4)cc3c21 [Example 2.10, 8-[6-(3-Dimethylamino-propoxy)-pyridin-3-yl]-3-methyl-1-(2-methyl-pyridin-3-yl)-1,3-dihydro-imidazo[4,5-c]quinolin-2-one] |
|  | 372 nM |  |  |  | −3.4 | Cc1cccnc1-n1c(=O)n(C)c2cnc3ccc(-c4ccc(N(C)C)nc4)cc3c21 [Example 3.11, 8-(6-Dimethylamino-pyridin-3-yl)-3-methyl-1-(3-methyl-pyridin-2-yl)-1,3-dihydro-imidazo[4,5-c]quinolin-2-one] |
| 166 nM | 167 nM | 351 nM |  |  |  | Cn1c(=O)n(-c2cccnc2)c2c3cc(-c4ccc(CO)nc4)ccc3ncc21 [Example 5.1, 8-(6-Hydroxymethyl-pyridin-3-yl)-3-methyl-1-pyridin-3-yl-1,3-dihydro-imidazo[4,5-c]quinolin-2-one] |
